Results: publication PMC8097242, “Galectin-4 N-Terminal Domain: Binding Preferences Toward A and B Antigens With Different Peripheral Core Presentations” (Frontiers in Chemistry, 2021)
Values belong to the molecule of their own block, whether it stands above or below them.

Tests used:
Assay type in all cases: binding
[1] = target: T1, N-terminal CRD of hGalectin-4 (Gal-4N) (Homo sapiens, UniProt P56470); assay: 1H-15N HSQC NMR-based titrations (chemical shift perturbation) of 15N-labeled Gal-4N; details: HSQC NMR-based titration, 50 μM 15N-labeled lectin, 298 K; read-out: KD (μM) (NMR)
T1 construct: N-terminal CRD of hGalectin-4 (amino acids 1–150, including an additional C-terminus His-Tag); His-Tag (C, cleaved yes); made in house; host or cells: E. coli BL21 (pET29b)
T1 sequence (P56470 1-150): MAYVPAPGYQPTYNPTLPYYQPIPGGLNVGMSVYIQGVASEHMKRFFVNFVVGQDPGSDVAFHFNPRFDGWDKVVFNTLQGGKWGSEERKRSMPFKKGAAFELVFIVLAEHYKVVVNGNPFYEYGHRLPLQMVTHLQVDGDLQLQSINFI
Protocol: The molecular recognition event was also analyzed from the perspective of the lectin. Thus, a chemical shift perturbation (CSP) analysis of the changes produced in the ^1H-^15N HSQC spectra recorded for ^15N-labeled Gal-4N upon addition of the different ligands was carried out. This analysis required the NH backbone NMR assignment of the lectin signals, following well-established triple resonance 3D NMR methods (see Materials and methods and Supplementary Information). The assignment protocol allowed assigning 80% of the NH backbone resonances. In addition to the ligands shown in Scheme 1, the corresponding non-fucosylated analogs and the H antigens (devoid of the terminal Gal/GalNAc moieties, see Supplementary Information), as well as lactose, were also employed. Thus, a full comparative analysis on the monosaccharide-specific effects on the lectin CSP was achieved.
The total volume for the NMR samples was 500/μl. The lectin was in phosphate-buffered saline (50 mM sodium phosphate, 150 mM NaCl, pH 7.4), either in D2O or 90:10 H2O:D2O depending on the NMR experiment. The pH was adjusted with the required amount of NaOH and HCl or NaOD and DCl.
experiments were acquired using an 800 MHz Bruker spectrometer with a cryoprobe (Bruker, Billerica, MA, United States). The samples were prepared using 50 μM of the ^15N-labeled lectin in the corresponding buffer in a 90:10 H2O:D2O ratio. The experiments were performed at 298 K. Six to nine points were recorded for each ligand and CSP and KD were calculated using CcpNmr Analysis 2.4.2.

[2] = target: T1, N-terminal CRD of hGalectin-4 (Gal-4N); assay: Isothermal titration calorimetry (ITC); details: for Kd: PBS pH 7.4, single binding site model
Protocol: Isothermal titration calorimetry experiments were performed using the MicroCal PEAQ-ITC calorimeter (Malvern Panalytical, Malvern, United Kingdom). Samples containing 100–200 μM of Gal-4N in PBS (50 mM sodium phosphate, pH 7.4, 300 mM NaCl) were titrated with stocks of 3–10 mM in PBS of glycans 4, 5, 7, 8, 9, and 11. During the automated experiment, small aliquots (2–3 μL) of the sugar stocks were added to the cell containing the lectin. Curve fitting to a single binding site model was performed with the MicroCal Origin 7 software.
Isothermal titratrion calorimetry (ITC). Isothermal Titration Calorimetry experiments were performed using MicroCal PEAQ-ITC calorimeter. Samples containing 100-200 µM of Gal-4N in PBS (50 mM sodium phosphate pH 7.4, 300 mM NaCl) were titrated with stocks of 3-10 mM in PBS of glycans A type 1, A type 2, A type 6, B type 1, B type 2 and B type 6. During the automated experiment, small aliquots (2-3 µL) of the sugar stocks were added to the cell containing the lectin. The association constants and the thermodynamic profile of the binding was calculated from the fitting of the titration data to a single binding site model.

[3] = target: T1, N-terminal CRD of hGalectin-4 (Gal-4N); assay: 1H Saturation Transfer Difference (STD) NMR epitope mapping
Protocol: ^1H-saturation transfer difference NMR spectra were acquired for mixtures of Gal-4N (50 μM) with a 50-fold excess of ligand. Protein aromatic irradiation afforded the best STD intensities and thus these are discussed henceforth. The STD NMR spectra were very similar among the different ligands with respect to both the observed glycan protons and their intensities. […] Severe proton overlapping precluded a full comparison among ligands, but key isolated ^1H NMR resonance signals permitted to highlight evident differences.
All the STD NMR experiments were performed using an 800 MHz Bruker spectrometer with a cryoprobe (Bruker, Billerica, MA, United States). The samples were prepared in the corresponding deuterated buffer. The temperature was 288 K for every experiment. An amount of 50 μM of the lectin with 50 equivalents of the ligand was employed for every experiment except for lactose, for which a 1:70 ratio was used. The STD spectra were acquired with 1,024 scans, 2 s of saturation time using a train of 50 ms Gaussian-shaped pulses, and 3 s of relaxation delay. The spin-lock filter applied to remove the signals of the lectin was set at 40 ms. The on-resonance frequency was set for the aromatic region at 6.58 ppm, while the off-resonance frequency was set at 100 ppm.
Supplementary Table S1. Relative STD-AF (Amplification factor) and STD percentage of each non overlapping proton of each ligand.

[4] = 1H-residue H4GalNAc (terminal, A type 6)
[5] = 1H-residue NHAcGlcNAc (B type 1: first of two lines)
[6] = 1H-residue NHAcGlcNAc (B type 1: second of two lines)
[7] = 1H-residue H4GalNAc (B type 4, core GalNAc)

Kd [1]: 150 µM | -TΔS (kcal mol^–1) (ITC) [2]: 2.9 kcal mol^–1 | ΔG (kcal mol^–1) (ITC) [2]: −5.6 kcal mol^–1 | ΔH (kcal mol^–1) (ITC) [2]: −8.5 kcal mol^–1 | increased affinity of type-6 vs corresponding type-2 antigen ([2]; Glc vs GlcNAc at reducing end, β1–4 linked): two-fold | Kd [2]: 86 µM | STD% ([3]; 1H-residue H1 Fuc): 13% | STD-AF ([3]; 1H-residue H1 Fuc): 0.0020 | STD% ([3]; 1H-residue H1GalNAc): 82% | STD-AF ([3]; 1H-residue H1GalNAc, 50:1 ligand:lectin, 288 K): 0.0129 | STD% ([3]; 1H-residue H1Galβ): 58% | STD-AF ([3]; 1H-residue H1Galβ): 0.0091 | STD% ([3]; 1H-residue H1Glca): 21% | STD-AF ([3]; 1H-residue H1Glca): 0.0033 | STD% ([3]; 1H-residue H1Glcb): 18% | STD-AF ([3]; 1H-residue H1Glcb): 0.0028 | STD% ([3]; 1H-residue H2GalNAc): 51% | STD-AF ([3]; 1H-residue H2GalNAc): 0.0081 | STD% ([3]; 1H-residue H2Glca / H2Glcα): 34% | STD-AF ([3]; 1H-residue H2Glca / H2Glcα): 0.0054 | STD% ([3]; 1H-residue H2Glcb / H2Glcβ): 30% | STD-AF ([3]; 1H-residue H2Glcb / H2Glcβ): 0.0048 | STD% ([3]; 1H-residue H3Galβ): 39% | STD-AF ([3]; 1H-residue H3Galβ): 0.0061 | STD% ([3]; 1H-residue H3Glcb / H3Glcβ): 32% | STD-AF ([3]; 1H-residue H3Glcb / H3Glcβ): 0.0050 | STD% [3, 4]: 16% | STD-AF [3, 4]: 0.0025 | STD% ([3]; 1H-residue H4Galβ): 60% | STD-AF ([3]; 1H-residue H4Galβ): 0.0095 | STD% ([3]; 1H-residue H5Galβ): 100% | STD-AF ([3]; 1H-residue H5Galβ): 0.0158 | STD% ([3]; 1H-residue MetFuc): 10% | STD-AF ([3]; 1H-residue MetFuc): 0.0016 | STD% ([3]; 1H-residue NHAc GalNAc): 100% | STD-AF ([3]; 1H-residue NHAc GalNAc): 0.0158
Structure (SMILES): CC(=O)NC1C(OC2C(O)C(CO)OC(OC3C(CO)OC(O)C(O)C3O)C2OC2OC(C)C(O)C(O)C2O)OC(CO)C(O)C1O (stereo not shown) [A type-6 (tetra)]

Kd [1]: 370 µM | -TΔS (kcal mol^–1) (ITC) [2]: 1.8 kcal mol^–1 | ΔG (kcal mol^–1) (ITC) [2]: −5.1 kcal mol^–1 | ΔH (kcal mol^–1) (ITC) [2]: −6.9 kcal mol^–1 | Kd [2]: 187 µM
Structure (SMILES): CC(=O)NC1C(O)OC(CO)C(OC2OC(CO)C(O)C(OC3OC(CO)C(O)C(O)C3NC(C)=O)C2OC2OC(C)C(O)C(O)C2O)C1O (stereo not shown) [A type−2 (tetra)]

Kd [1]: 200 µM | -TΔS (kcal mol^–1) (ITC) [2]: 2.3 kcal mol^–1 | ΔG (kcal mol^–1) (ITC) [2]: −5.4 kcal mol^–1 | ΔH (kcal mol^–1) (ITC) [2]: −7.7 kcal mol^–1 | Kd [2]: 109 µM | STD% ([3]; 1H-residue H1 Fuc): 0% | STD-AF ([3]; 1H-residue H1 Fuc): 0.0000 | STD% ([3]; 1H-residue H1Galα): 56% | STD-AF ([3]; 1H-residue H1Galα): 0.0053 | STD% ([3]; 1H-residue H1Galβ): 70% | STD-AF ([3]; 1H-residue H1Galβ): 0.0066 | STD% ([3]; 1H-residue H1GlcNAc): 16% | STD-AF ([3]; 1H-residue H1GlcNAc): 0.0015 | STD% ([3]; 1H-residue H2Galα): 35% | STD-AF ([3]; 1H-residue H2Galα): 0.0033 | STD% ([3]; 1H-residue H2GlcNAc): 29% | STD-AF ([3]; 1H-residue H2GlcNAc): 0.0027 | STD% ([3]; 1H-residue H3GlcNAc): 38% | STD-AF ([3]; 1H-residue H3GlcNAc): 0.0036 | STD% ([3]; 1H-residue H4Galβ): 74% | STD-AF ([3]; 1H-residue H4Galβ): 0.0070 | STD% ([3]; 1H-residue H4GlcNAc): 53% | STD-AF ([3]; 1H-residue H4GlcNAc): 0.0050 | STD% ([3]; 1H-residue H5Galα): 23% | STD-AF ([3]; 1H-residue H5Galα): 0.0022 | STD% ([3]; 1H-residue H5Galβ): 100% | STD-AF ([3]; 1H-residue H5Galβ): 0.0094 | STD% ([3]; 1H-residue MetFuc): 14% | STD-AF ([3]; 1H-residue MetFuc): 0.0013 | STD% [3, 5]: 141% | STD-AF [3, 5]: 0.0133 | STD% [3, 6]: 59% | STD-AF [3, 6]: 0.0055 | STD% ([3]; Average NHAc): 100% | STD-AF ([3]; Average NHAc): 0.0094
Structure (SMILES): CC(=O)N[C@@H]1[C@@H](O[C@@H]2O[C@H](CO)[C@H](O)[C@H](O[C@H]3O[C@H](CO)[C@H](O)[C@H](O)[C@H]3O)[C@H]2O[C@@H]2O[C@@H](C)[C@@H](O)[C@@H](O)[C@@H]2O)[C@H](O)[C@@H](CO)O[C@H]1O [B type-1 (tetra)]

Kd [1]: 460 µM | STD% ([3]; 1H-residue H1 Fuc): 21% | STD-AF ([3]; 1H-residue H1 Fuc): 0.0020 | STD% ([3]; 1H-residue H1Galα): 100% | STD-AF ([3]; 1H-residue H1Galα): 0.0094 | STD% ([3]; 1H-residue H1Galβ): 49% | STD-AF ([3]; 1H-residue H1Galβ): 0.0046 | STD% ([3]; 1H-residue H2Galβ): 47% | STD-AF ([3]; 1H-residue H2Galβ): 0.0044 | STD% ([3]; 1H-residue H3Galα): 44% | STD-AF ([3]; 1H-residue H3Galα): 0.0041 | STD% [3, 7]: 30% | STD-AF [3, 7]: 0.0028 | STD% ([3]; 1H-residue H4Galβ): 68% | STD-AF ([3]; 1H-residue H4Galβ): 0.0064 | STD% ([3]; 1H-residue H5Galβ): 86% | STD-AF ([3]; 1H-residue H5Galβ): 0.0081 | STD% ([3]; 1H-residue MetFuc): 10% | STD-AF ([3]; 1H-residue MetFuc): 0.0009 | STD% ([3]; 1H-residue NHAc (B type 4)): 36% | STD-AF ([3]; 1H-residue NHAc (B type 4)): 0.0034
Structure (SMILES): CC(=O)NC1C(OC2C(O)C(O)OC(CO)C2O)OC(CO)C(O)C1OC1OC(CO)C(O)C(OC2OC(CO)C(O)C(O)C2O)C1OC1OC(C)C(O)C(O)C1O (stereo not shown) [B type-4 (penta)]
